Reference: patent publication US12447153B2, “HER2 mutation inhibitors” (Array BioPharma Inc., priority 2021, dated 2025)

Key:
ErbB2 WT = ErbB2 WT (Homo sapiens (Human), UniProt P04626); assay: ErbB Enzyme Assay (HTRF KinEASE-TK), Assay 2; type: biochemical
EGFR = EGFR (Homo sapiens (Human), UniProt P00533); assay: ErbB Enzyme Assay (HTRF KinEASE-TK), Assay 3; type: biochemical
[1] = target: ErbB2 with Exon 20 YVMA insertion (HER2-YVMA) (Homo sapiens (Human), UniProt P04626, INS775YVMA); assay: Cellular Phosphorylation Assay, Assay 4 (constitutive ErbB2 phosphorylation, NIH 3T3 cells); type: cell-based
EGFR wild type (EGFR WT) = EGFR wild type (EGFR WT) (Homo sapiens (Human), UniProt P00533); assay: Cellular Phosphorylation Assay, Assay 5 (EGF-stimulated EGFR phosphorylation, NIH 3T3 cells); type: cell-based
[2] = EGF-stimulated EGFR WT phosphorylation
[3] = cellular ErbB2 YVMA phosphorylation
[4] = cellular EGFR WT phosphorylation, EGF-stimulated

Chain of ErbB2 WT (P04626 23-1255): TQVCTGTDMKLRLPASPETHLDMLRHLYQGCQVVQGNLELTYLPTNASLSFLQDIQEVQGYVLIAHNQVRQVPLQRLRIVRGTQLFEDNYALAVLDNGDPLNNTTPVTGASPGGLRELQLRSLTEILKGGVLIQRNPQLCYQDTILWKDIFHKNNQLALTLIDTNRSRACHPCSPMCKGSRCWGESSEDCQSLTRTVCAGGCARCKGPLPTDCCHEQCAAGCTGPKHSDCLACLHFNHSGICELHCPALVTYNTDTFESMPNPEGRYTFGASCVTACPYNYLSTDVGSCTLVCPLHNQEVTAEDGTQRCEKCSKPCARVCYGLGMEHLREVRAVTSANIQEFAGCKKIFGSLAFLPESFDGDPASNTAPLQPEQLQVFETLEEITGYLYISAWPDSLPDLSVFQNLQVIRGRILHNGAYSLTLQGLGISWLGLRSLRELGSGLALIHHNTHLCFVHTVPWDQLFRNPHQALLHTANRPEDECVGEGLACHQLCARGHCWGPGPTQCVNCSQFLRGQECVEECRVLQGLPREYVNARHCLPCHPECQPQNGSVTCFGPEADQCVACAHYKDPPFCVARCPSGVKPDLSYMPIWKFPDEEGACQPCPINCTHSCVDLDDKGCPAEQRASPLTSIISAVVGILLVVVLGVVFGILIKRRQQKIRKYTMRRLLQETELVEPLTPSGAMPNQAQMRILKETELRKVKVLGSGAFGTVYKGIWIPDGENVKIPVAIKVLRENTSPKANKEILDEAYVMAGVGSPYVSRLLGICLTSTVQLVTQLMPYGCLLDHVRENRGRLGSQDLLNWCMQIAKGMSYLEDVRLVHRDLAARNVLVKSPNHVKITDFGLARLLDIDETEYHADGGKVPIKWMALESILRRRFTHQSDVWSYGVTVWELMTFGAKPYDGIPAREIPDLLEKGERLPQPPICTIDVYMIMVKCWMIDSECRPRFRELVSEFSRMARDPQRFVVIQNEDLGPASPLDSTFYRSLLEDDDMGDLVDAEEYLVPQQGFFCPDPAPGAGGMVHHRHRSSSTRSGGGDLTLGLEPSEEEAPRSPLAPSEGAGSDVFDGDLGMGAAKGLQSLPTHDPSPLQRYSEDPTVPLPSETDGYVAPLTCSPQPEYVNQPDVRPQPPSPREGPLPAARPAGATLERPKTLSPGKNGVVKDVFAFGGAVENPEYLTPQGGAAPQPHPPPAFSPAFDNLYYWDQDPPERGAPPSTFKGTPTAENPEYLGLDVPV
Chain of EGFR wild type (EGFR WT) (P00533 25-1210): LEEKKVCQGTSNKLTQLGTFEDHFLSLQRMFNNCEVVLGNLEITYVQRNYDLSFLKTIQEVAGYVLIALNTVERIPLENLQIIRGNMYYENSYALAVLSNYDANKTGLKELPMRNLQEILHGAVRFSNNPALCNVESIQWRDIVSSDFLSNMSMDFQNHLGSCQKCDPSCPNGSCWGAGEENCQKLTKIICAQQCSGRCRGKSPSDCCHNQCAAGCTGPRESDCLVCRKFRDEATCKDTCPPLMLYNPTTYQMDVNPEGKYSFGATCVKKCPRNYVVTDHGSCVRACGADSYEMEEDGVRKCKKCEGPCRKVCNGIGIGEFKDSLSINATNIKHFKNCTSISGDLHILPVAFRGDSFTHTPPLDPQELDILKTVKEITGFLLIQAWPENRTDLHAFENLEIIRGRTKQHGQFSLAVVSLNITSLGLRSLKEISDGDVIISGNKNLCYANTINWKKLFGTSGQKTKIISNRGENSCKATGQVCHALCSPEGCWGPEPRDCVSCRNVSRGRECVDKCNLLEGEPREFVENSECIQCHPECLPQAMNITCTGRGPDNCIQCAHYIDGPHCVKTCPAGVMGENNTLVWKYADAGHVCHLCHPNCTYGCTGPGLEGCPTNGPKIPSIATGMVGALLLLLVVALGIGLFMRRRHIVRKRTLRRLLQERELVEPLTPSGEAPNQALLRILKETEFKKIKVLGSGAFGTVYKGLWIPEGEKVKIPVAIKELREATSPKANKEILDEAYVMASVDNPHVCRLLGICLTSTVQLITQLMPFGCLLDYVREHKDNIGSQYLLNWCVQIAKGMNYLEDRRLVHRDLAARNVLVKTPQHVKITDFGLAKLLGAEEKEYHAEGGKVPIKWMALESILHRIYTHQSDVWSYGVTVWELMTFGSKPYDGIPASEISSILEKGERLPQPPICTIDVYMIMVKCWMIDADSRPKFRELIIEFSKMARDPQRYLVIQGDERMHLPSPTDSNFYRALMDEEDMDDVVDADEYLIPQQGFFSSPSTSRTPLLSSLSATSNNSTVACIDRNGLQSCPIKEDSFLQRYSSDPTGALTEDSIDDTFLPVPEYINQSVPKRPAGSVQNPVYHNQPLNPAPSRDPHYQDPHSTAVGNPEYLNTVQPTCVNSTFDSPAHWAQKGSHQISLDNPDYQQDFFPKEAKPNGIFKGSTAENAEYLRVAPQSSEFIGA
Chain of EGFR (P00533 25-1210): as above
Chain of ErbB2 with Exon 20 YVMA insertion (HER2-YVMA) (P04626 other isoform, or with tags, fused parts or gaps ins YVMA behind 775): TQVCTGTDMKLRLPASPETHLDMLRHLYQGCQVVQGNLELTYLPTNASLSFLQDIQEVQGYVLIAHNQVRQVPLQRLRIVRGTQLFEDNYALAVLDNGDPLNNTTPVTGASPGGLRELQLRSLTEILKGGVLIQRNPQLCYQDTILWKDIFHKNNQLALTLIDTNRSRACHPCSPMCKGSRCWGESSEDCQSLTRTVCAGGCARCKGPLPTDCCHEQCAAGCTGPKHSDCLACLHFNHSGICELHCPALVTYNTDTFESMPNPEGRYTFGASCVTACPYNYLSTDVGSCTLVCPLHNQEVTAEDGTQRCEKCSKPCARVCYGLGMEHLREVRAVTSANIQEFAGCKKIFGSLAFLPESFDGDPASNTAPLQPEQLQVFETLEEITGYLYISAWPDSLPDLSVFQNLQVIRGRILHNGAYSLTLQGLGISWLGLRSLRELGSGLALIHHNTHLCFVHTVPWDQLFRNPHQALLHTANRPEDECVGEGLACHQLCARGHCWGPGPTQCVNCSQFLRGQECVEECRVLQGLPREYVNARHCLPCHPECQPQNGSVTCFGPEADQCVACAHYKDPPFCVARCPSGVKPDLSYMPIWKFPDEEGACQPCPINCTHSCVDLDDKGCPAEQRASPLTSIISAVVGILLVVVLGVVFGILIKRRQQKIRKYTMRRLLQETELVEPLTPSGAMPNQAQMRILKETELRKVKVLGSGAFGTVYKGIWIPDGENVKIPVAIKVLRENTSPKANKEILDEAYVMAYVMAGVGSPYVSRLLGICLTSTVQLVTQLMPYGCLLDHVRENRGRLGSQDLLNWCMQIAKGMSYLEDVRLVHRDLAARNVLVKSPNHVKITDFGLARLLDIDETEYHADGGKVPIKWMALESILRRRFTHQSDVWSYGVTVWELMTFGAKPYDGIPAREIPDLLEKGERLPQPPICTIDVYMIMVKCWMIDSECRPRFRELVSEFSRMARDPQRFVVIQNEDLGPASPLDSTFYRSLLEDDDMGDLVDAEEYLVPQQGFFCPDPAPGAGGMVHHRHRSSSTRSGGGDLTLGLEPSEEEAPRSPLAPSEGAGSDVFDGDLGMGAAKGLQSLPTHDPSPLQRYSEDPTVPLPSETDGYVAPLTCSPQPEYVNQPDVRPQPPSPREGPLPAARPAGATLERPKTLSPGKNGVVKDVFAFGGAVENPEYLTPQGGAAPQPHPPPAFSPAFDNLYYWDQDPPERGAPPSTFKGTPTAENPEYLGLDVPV

| SMILES | IC50 (ErbB2 WT; ErbB2 WT enzyme) [nM] | IC50 (EGFR; EGFR enzyme) [nM] | IC50 ([1]; ErbB2 YVMA phosphorylation) [nM] | IC50 (EGFR wild type (EGFR WT); [2]) [nM] | IC50 (ErbB2 WT; ErbB2 WT enzyme assay) [nM] | IC50 (EGFR; EGFR enzyme assay) [nM] | IC50 [1, 3] [nM] | IC50 (EGFR wild type (EGFR WT); [4]) [nM] |
| --- | --- | --- | --- | --- | --- | --- | --- | --- |
| C=CC(=O)N1CCCN(c2nc3c(Nc4ccc(Oc5ccn6ncnc6c5)c(C)c4F)ncnc3cc2OC)CC1 [Example 150, 1-(4-(4-((4-([1,2,4]triazolo[1,5-a]pyridin-7-yloxy)-2-fluoro-3-methylphenyl)amino)-7-methoxypyrido[3,2-d]pyrimidin-6-yl)-1,4-diazepan-1-yl)prop-2-en-1-one] | 16.6 | 1550 | 47 | ≥ 5000 | – | – | – | – |
| C=CC(=O)N(C)[C@H]1CCN(c2ccc3ncnc(Nc4ccc(Oc5ccn6ncnc6c5)c(C)c4F)c3n2)C1 [Example 352] | – | – | – | – | 25.4 | 2910 | 11.5 | ≥ 5000 |
| Cc1c(Oc2ccn3ncnc3c2)ccc(Nc2ncnc3ccc(N4C[C@@H]5CCN(C(=O)C67CC6C7)[C@@H]5C4)nc23)c1F (stereo partly drawn) [Example 27, ((3aS,6aS)-5-(4-((4-([1,2,4]triazolo[1,5-a]pyridin-7-yloxy)-2-fluoro-3-methylphenyl)amino)pyrido[3,2-d]pyrimidin-6-yl)hexahydropyrrolo[3,4-b]pyrrol-1(2H)-yl)(bicyclo[1.1.0]butan-1-yl)methanone] | 486 | ≥ 10000 | 381 | ≥ 5000 | – | – | – | – |
| C=CC(=O)N1CCN(c2ccc3ncnc(Nc4ccc(Oc5ccn6ncnc6c5)c(C)c4F)c3n2)C[C@@H]1C1CCC1 (racemic) [Example 305] | – | – | – | – | 127 | 7970 | 66.1 | ≥ 5000 |
| C=CC(=O)N1C[C@H]2CC[C@@H]1C[C@@H]2c1ccc2ncnc(Nc3ccc(Oc4ccn5ncnc5c4)c(C)c3F)c2n1 (single isomer, unassigned) [Example 234] | 37.3 | 960 | 33 | 875 | – | – | – | – |
| C=CC(=O)N1C[C@H]2CC[C@@H]1CN2c1ccc2ncnc(Nc3cc(Cl)c(Oc4ccn5ncnc5c4)cc3F)c2n1 [Example 330] | – | – | – | – | 239 | ≥ 10000 | 241 | ≥ 5000 |
| C=CC(=O)N1CCN(c2ccc3ncnc(Nc4ccc(Oc5ccc6c(c5)ncn6C)c(C)c4F)c3n2)CCC1(C)C [Example 68, 1-(4-(4-((2-fluoro-3-methyl-4-((1-methyl-1H-benzo[d]imidazol-5-yl)oxy)phenyl)amino)pyrido[3,2-d]pyrimidin-6-yl)-7,7-dimethyl-1,4-diazepan-1-yl)prop-2-en-1-one] | 664 | ≥ 10000 | 73.8 | ≥ 5000 | – | – | – | – |
| C=CC(=O)N1C[C@H]2CC[C@H](c3ccc4ncnc(Nc5cc(C)c(Oc6ccn7ncnc7c6)cc5F)c4n3)[C@H]2C1 [Example 410] | – | – | – | – | 120 | 3670 | 82.7 | ≥ 5000 |
| C=CC(=O)N1CCN(c2ccc3ncnc(Nc4ccc(Oc5ccc6c(c5)ncn6C)c(C)c4F)c3n2)C[C@H]1C(C)C [Example 253] | – | – | – | – | 162 | ≥ 10000 | 31 | ≥ 5000 |
| C=CC(=O)N1C[C@@H](c2ccc3ncnc(Nc4cc(C)c(Oc5ccn6ncnc6c5)cc4F)c3n2)C[C@@H]1C (mixture of isomers) [Example 384] | – | – | – | – | 101 | 3000 | 58.3 | ≥ 5000 |
| CC#CC(=O)N1CCN(c2ccc3ncnc(Nc4ccc(Oc5ccn6ncnc6c5)c(C)c4F)c3n2)C[C@@H]1C(F)F (racemic) [Example 168, rac-1-(4-(4-((4-([1,2,4]triazolo[1,5-a]pyridin-7-yloxy)-2-fluoro-3-methylphenyl)amino)pyrido[3,2-d]pyrimidin-6-yl)-2-(difluoromethyl)piperazin-1-yl)but-2-yn-1-one] | 74.3 | 1790 | 16.5 | 356 | – | – | – | – |
| C=CC(=O)N1[C@@H]2CC[C@H]1[C@H](c1ccc3ncnc(Nc4cc(C)c(Oc5ccn6ncnc6c5)cc4F)c3n1)C2 [Example 392] | – | – | – | – | 9.8 | 1480 | 82 | ≥ 5000 |
| C=CC(=O)N1C[C@H](c2ccc3ncnc(Nc4ccc(Oc5ccn6ncnc6c5)c(C)c4F)c3n2)CC1(C)C (racemic) [Example 296] | – | – | – | – | 58.5 | 881 | 36.1 | 1440 |
| C=CC(=O)N1CCN(c2ccc3ncnc(Nc4ccc(Oc5ccn6ncnc6c5)c(C)c4F)c3n2)C[C@@H]1C(C)(C)C [Example 295] | – | – | – | – | 153 | 1030 | 79.3 | ≥ 5000 |
| C=CC(=O)N1CC[C@H](c2ccc3ncnc(Nc4cc(C)c(Oc5ccc6c(c5)ncn6C)cc4F)c3n2)CC(C)(C)C1 (racemic) [Example 139, rac-(R)-1-(5-(4-((2-fluoro-5-methyl-4-((1-methyl-1H-benzo[d]imidazol-5-yl)oxy)phenyl)amino)pyrido[3,2-d]pyrimidin-6-yl)-3,3-dimethylazepan-1-yl)prop-2-en-1-one] | ≥ 10000 | ≥ 10000 | 32.5 | ≥ 5000 | – | – | – | – |
| C=CC(=O)N1CCN(c2ccc3ncnc(Nc4cc(C)c(Oc5ccn6ncnc6c5)cc4F)c3n2)C[C@@H]1C(F)F (racemic) [Example 312] | – | – | – | – | 23.8 | 892 | 13.4 | 312 |
| C=CC(=O)N1C[C@H]2CC[C@@H](C1)[C@@H]2c1ccc2ncnc(Nc3ccc(Oc4ccn5ncnc5c4)c(C)c3F)c2n1 [Example 223, 1-((1R,5S,8r)-8-(4-((4-([1,2,4]triazolo[1,5-a]pyridin-7-yloxy)-2-fluoro-3-methylphenyl)amino)pyrido[3,2-d]pyrimidin-6-yl)-3-azabicyclo[3.2.1]octan-3-yl)prop-2-en-1-one] | 48.9 | 1960 | 145 | ≥ 5000 | – | – | – | – |
| CCC(=O)N1CC([C@H](C)c2ccc3ncnc(Nc4ccc(Oc5ccn6ncnc6c5)c(C)c4F)c3n2)C1 (racemic) [Example 301] | – | – | – | – | 94.8 | 2250 | 51.1 | 2550 |
| C=CC(=O)N1CCC(Oc2ccc3ncnc(Nc4cc(C)c(Oc5ccc6cn(C)nc6c5)cc4F)c3n2)CC1 [Example 5, 1-(4-((4-((2-fluoro-5-methyl-4-((2-methyl-2H-indazol-6-yl)oxy)phenyl)amino)pyrido[3,2-d]pyrimidin-6-yl)oxy)piperidin-1-yl)prop-2-en-1-one] | 2340 | ≥ 10000 | 407 | ≥ 5000 | – | – | – | – |
| C=CC(=O)N1CCN(c2ccc3ncnc(Nc4ccc(Oc5ccn6ncnc6c5)c(C)c4F)c3n2)C[C@@H]1C(C)C [Example 266] | – | – | – | – | 178 | ≥ 10000 | 91.2 | ≥ 5000 |
| C=CC(=O)N1CCCCC(c2ccc3ncnc(Nc4ccc(Oc5ccc6c(c5)ncn6C)c(C)c4)c3n2)C1 (stereo not drawn) [Example 126, 1-(3-(4-((3-methyl-4-((1-methyl-1H-benzo[d]imidazol-5-yl)oxy)phenyl)amino)pyrido[3,2-d]pyrimidin-6-yl)azepan-1-yl)prop-2-en-1-one] | 12.3 | 1260 | 12.2 | 1770 | – | – | – | – |
